Experimental data reported in US10780061B2, “Composition comprising farnesol and use thereof” (Daegu Gyongbuk Institute of Science and Technology, priority 2014, dated 2020).

Columns and labels:
SDH enzyme activity = assay: SDH staining of hind limb muscles, high fat diet model; type: in vivo, mouse; conditions: high fat diet with 0.5% compound, 3 months
From the text: (§1) To prepare the PGC-1α-inhibited model, 3-month-old mouse (female, body weight of 20 g) is fed with high fat diet, in which fat is increased to 60%, compared to a negative control group, for 5 days (short-term effect) or 3 months (long-term effect). The negative control group is fed with a general diet. Farnesol is mixed in the high fat diet at a content of 0.5% (weight of farnesol/weight of diet). A positive control group is fed with high fat diet containing a type II diabetes drug, metformin at a content of 0.5% (weight of metformin/weight of diet). Mice are fed with the general diet, the high fat diet, and the high fat diet containing farnesol or metformin for 3 months, and then hind limbs are removed to analyze muscle differentiation and mitochondrial enzyme activity.

[1] = LC-MS/MS of farnesol and metabolite FPP in extensor digitorum longus muscle; type: in vivo; conditions: mouse orally administered with farnesol 5 weeks
Description: The amount of intracellular farnesol or metabolite thereof is measured in the extensor digitorum longus muscle of a mouse administered with farnesol for 5 weeks.
Sample pretreatment for quantitative analysis of farnesol in the mouse extensor digitorum longus muscle is performed by extraction using saturated KOH/ethanol and fractionation using Tris-HCl buffer and n-hexane: ethanol (Journal of Pharmaceutical and Biomedical Analysis 47(2008) 560-566) and an n-hexane layer is obtained and dried, followed by LC-MS/MS (ACQUITY UPLC System and ACQUITY TQD mass spectrometry, Waters). […] The concentration of farnesol is determined by a ratio of a peak area of farnesol to a peak area of 1-tetradecanol used as an internal standard, they are added to the sample in an equal amount.
Sample pretreatment for quantitative analysis of a farnesol metabolite, farnesylpyrophosphate (FPP) in the mouse extensor digitorum longus muscle is performed by extraction using 2-propanol: 100 mM NH4HCO3, pH 7.8 (1:1 v/v) and protein precipitation using acetonitrile (Anal. Biochem. 383 (2008) 18-24), and a supernatant is obtained and dried, followed by LC-MS/MS (ACQUITY UPLC System and ACQUITY TQD mass spectrometry, Waters). […] The concentration of FPP is determined by a peak area.

[2] = cited from earlier work
PARIS, PGC-1α = assay: Western blotting of hind limb muscles, high fat diet for 3 months; type: in vivo, mouse; conditions: high fat diet with 0.5% compound
From the text: as §1

[3] = tested on: Myh2a-positive muscle fibers; assay: Myh2a immunostaining of hind limb muscles, high fat diet (PGC-1α-inhibited) model; type: in vivo, mouse; conditions: high fat diet with 0.5% compound, 3 months
From the text: as §1
In FIG. 6C, SD represents a standard diet as a negative control group, HFD represents a high fat diet, and HFD+Farnesol or HFD-metformin represents farnesol or metformin-added HFD, respectively.

CC(C)=CCC/C(C)=C/CC/C(C)=C/CO [farnesol, (2E,6E)-3,7,11-trimethyldodeca-2,6,10-trien-1-ol]
percentage of muscle fibers showing increased SDH enzyme activity (SDH enzyme activity): increased | amount of farnesol in EDL muscle relative to control [1]: ≥ 1.3 times | lethal dose (LD) for 50% mouse mortality [2]: 8,765 mg per mouse body weight (kg) | decreased PGC-1α expression by high fat diet (PARIS, PGC-1α): inhibited | increased PARIS level by high fat diet (PARIS, PGC-1α): inhibited | percentage of Myh2a-postive muscle fibers [3]: significantly increases
